In patent US9308210B2, “Method for modulating canonical Wnt pathway using folate and inositol” (University of South Florida, priority 2009, dated 2016):
Where a name gives a salt, the structure may show the parent alone.

Key:
[1] = tested on: Wnt pathway-associated and lipid metabolism genes; assay: Affymetrix microarray of E15.5 embryonic heart tissue after Li+ or HCys exposure with or without FA; type: in vivo, mouse
Text: The inbred C57B16 mouse strain (Jackson Laboratories, Bar Harbor, Me.) was used throughout this study. It has become recognized that mouse strains can differ in their response to environmental factors (Andrikopoulos et al., 2005; Barnabei et al., 2010; Funkat et al., 2004). Thus, the mouse strain being used should be taken into consideration when comparing different studies. Morning of detection of the vaginal sperm plug was defined as embryonic day (E) 0.5. Timed-pregnant mice were randomly allocated to receive intraperitoneally (i.p.) either a single dose of 100 μl of 6.25 mg/ml of lithium chloride (Li+), as previously determined (Chen et al., 2008), 100 μl of 75 μM HCys (Han et al., 2009), or 100 μl of 0.9% physiological saline (control group). […]
As in the previous studies, animal chow was supplemented with 10.5 mg/kg folic acid (FA), a concentration that has been used in trial human population studies (Czeizel et al., 2013; Han et al., 2009). […] On ED 6.75 (at 5:30 PM) experimental pregnant females received Li+ or HCys by an i.p. injection that the inventors reported induces a high incidence of valve and heart defects as detected by echocardiography at mid-gestation on ED 15.5 (Han et al., 2009).
The inventors analyzed for gene misexpression in the embryonic heart on E15.5 of gestation, i.e., over a week after the acute exposures. […]

[2] = tested on: C57BL/6 mouse embryos; conditions: in vivo
[3] = tested on: C57BL/6 mouse embryos; assay: Morphometric measurements, resorptions and lethality of mouse embryos after Li or HCy exposure, FA rescue; type: in vivo; conditions: for Resorptions (percent): hydrochloride
Text: To determine whether the results in the avian system would extend to the mammalian system, the inventors conducted studies in the mouse embryo. All mice were maintained according to protocols approved by the Institutional Animal Care and Use Committee at the University of South Florida. The C57BL/6 mouse strain (Jackson Laboratories, Bar Harbor, Me.) was used throughout the study. E0.5 was defined as the morning when the vaginal sperm plug was detected. Timed pregnant mice were randomly allocated to receive a single dose of 100 μl of 6.25 mg/ml Li chloride, as determined previously (Chen et al., 2008), 100 μl of 75 μM HCy, or 100 μl of 6.25 mg/ml sodium chloride (control group); all treatments were given intraperitoneally (i.p). On E15.5, the utero-placental circulation of the pregnant mice, and the central and peripheral circulations of the embryos were examined non-invasively in utero using Doppler ultrasonography (Gui et al., 1996; Linask and Huhta, 2000). Sixty-eight embryos were exposed to Li, 59 to HCy and 42 to physiological saline.
An HCy concentration of 75 μM, used for maternal exposure, was determined empirically using different doses of HCy (i.e. 150, 75, 50 and 15 μM). The minimal teratogenic dose was determined to be 75 μM. […] The single i.p. injection of HCy at E6.75 produced a high number of valve defects (66%), as well as resorptions (46%). […] Because not all embryos within litters are at exactly the same stage of development, the variability of effects seen with either Li or HCy probably reflects the differences in developmental stage.
Following echo monitoring on E15.5, placental weight and morphometric measurements of crown-rump length and body weight were obtained. […] HCy administered on E6.75 induced valve defects in 66.1% of the embryos (39/59 embryos). Some litters were allowed to develop to E18.5.

| SMILES | changes in lipid metabolism gene expression with high FA supplementation ([1]; Li or HCys exposure, FA 10.5 mg/kg diet) | DAPI [2] | DVPI [2] | E/A Ratio [2] | HR [2] [bpm] | ICT % [2] [%] | IRT % [2] [%] | MPI [2] | OF [2] [cm/s] | RR [2] [ms] | UAPI [2] | Body Weight ([3]; E15.5 after exposure on E6.75) [g] | CRL ([3]; E15.5 after exposure on E6.75) [mm] | Placenta Weight ([3]; E15.5 after exposure on E6.75) [g] | embryonic lethality ([3]; acute single dose of HCy at E5.5) [%] | Resorptions (embryos/total) ([3]; exposure on E6.75) | Resorptions (percent) ([3]; exposure on E6.75) [%] | Resorptions (percent) ([3]; exposure on E6.75, listed as HCys) [%] | placental weight, crown-rump length and body weight versus control embryos ([3]; single exposure on E6.75, E15.5) | Wnt pathway-associated gene expression ([1]; E15.5 hearts after acute exposure at E6.75) |
| --- | --- | --- | --- | --- | --- | --- | --- | --- | --- | --- | --- | --- | --- | --- | --- | --- | --- | --- | --- | --- |
| Nc1nc2ncc(CNc3ccc(C(=O)N[C@@H](CCC(=O)O)C(=O)O)cc3)nc2c(=O)[nH]1 [FA, folic acid] | prevented | 1.82 | 1.04 | 0.28 | 191 | 7.32 | 12.82 | 0.50 | 34.30 | 314 | 1.71 |  |  |  |  |  |  |  |  |  |
| N[C@H]1CCSC1=O [HCy, L-homocysteine thiolactone hydrochloride] |  |  |  |  |  |  |  |  |  |  |  | 0.35 | 13 | 0.11 | 79 | 27/59 | 46 | 45.7 | significantly decreased | significantly misexpressed |
